± gives the standard deviation of the averaged measurements.
How the values were obtained:
LAPATINIB = compound: CS(=O)(=O)CCNCc1ccc(-c2ccc3ncnc(Nc4ccc(OCc5cccc(F)c5)c(Cl)c4)c3c2)o1 [LAPATINIB]; experiment: surviving fraction relative to DMSO-only wells; higher = less growth inhibition; conditions: exposure time: 5 days
In short: (§1)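 Log-phase tumour cell lines were seeded at 250–500 cells per well in 384-well plates. After 24 hours they were exposed continuously for five days to inhibitors at 0.5, 1, 5, 10, 50, 100, 500 and 1000 nM. Viability was read by CellTiter-Glo luminescence after 10 minutes at room temperature, and surviving fraction is luminescence normalised to the median of DMSO-only wells. Each line was screened three times and kept only if replicate Pearson r >0.7 and median Z' >0.3.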

2-METHOXYESTRADIOL = compound: COc1cc2c(cc1O)CC[C@@H]1[C@@H]2CC[C@]2(C)[C@@H](O)CC[C@@H]12 [2-METHOXYESTRADIOL]; experiment: as above; conditions: exposure time: 5 days
In short: as §1

| Test System | surviving fraction (LAPATINIB; 0.5 nM) | surviving fraction (LAPATINIB; 1 nM) | surviving fraction (LAPATINIB; 5 nM) | surviving fraction (LAPATINIB; 10 nM) | surviving fraction (LAPATINIB; 50 nM) | surviving fraction (LAPATINIB; 100 nM) | surviving fraction (LAPATINIB; 500 nM) | surviving fraction (LAPATINIB; 1000 nM) | surviving fraction (2-METHOXYESTRADIOL; 0.5 nM) | surviving fraction (2-METHOXYESTRADIOL; 1 nM) | surviving fraction (2-METHOXYESTRADIOL; 5 nM) | surviving fraction (2-METHOXYESTRADIOL; 10 nM) | surviving fraction (2-METHOXYESTRADIOL; 50 nM) | surviving fraction (2-METHOXYESTRADIOL; 100 nM) | surviving fraction (2-METHOXYESTRADIOL; 500 nM) | surviving fraction (2-METHOXYESTRADIOL; 1000 nM) |
| --- | --- | --- | --- | --- | --- | --- | --- | --- | --- | --- | --- | --- | --- | --- | --- | --- |
| SG27 HEADNECK | 1.09 ± 0.081 | 1.09 ± 0.056 | 1.1 ± 0.27 | 1.18 ± 0.17 | 0.977 ± 0.14 | 1.04 ± 0.067 | 0.988 ± 0.026 | 1.06 ± 0.06 | 1.14 ± 0.19 | 1.2 ± 0.083 | 1.04 ± 0.12 | 1.05 ± 0.081 | 1.05 ± 0.085 | 1.16 ± 0.2 | 1.09 ± 0.062 | 1.03 ± 0.079 |
| SG28 HEADNECK | 0.979 ± 0.1 | 1.07 ± 0.03 | 0.851 ± 0.11 | 1.03 ± 0.042 | 0.764 ± 0.043 | 0.775 ± 0.079 | 0.599 ± 0.057 | 0.563 ± 0.021 | 1.07 ± 0.037 | 1.18 ± 0.096 | 0.94 ± 0.0042 | 1.11 ± 0.016 | 1.11 ± 0.13 | 1.06 ± 0.048 | 1.06 ± 0.066 | 1.02 ± 0.064 |
| SG31 HEADNECK | 1.17 ± 0.26 | 1.05 ± 0.18 | 0.799 ± 0.1 | 0.948 ± 0.093 | 0.699 ± 0.084 | 1.02 ± 0.27 | 0.775 ± 0.23 | 0.846 ± 0.21 | 1.09 ± 0.23 | 1.12 ± 0.13 | 0.996 ± 0.26 | 1.09 ± 0.084 | 1 ± 0.077 | 0.949 ± 0.025 | 1.12 ± 0.13 | 0.962 ± 0.073 |
| SG32 HEADNECK | 1.05 ± 0.22 | 1.02 ± 0.1 | 1.07 ± 0.14 | 1.12 ± 0.17 |  | 1.67 ± 0.82 | 0.905 ± 0.23 | 0.801 ± 0.18 | 1.04 ± 0.1 | 0.985 ± 0.03 | 1.04 ± 0.21 | 0.96 ± 0.083 | 0.947 ± 0.059 | 0.847 ± 0.075 | 0.62 ± 0.12 | 0.34 ± 0.034 |
| SG43 HEADNECK | 0.869 ± 0.17 | 0.93 ± 0.22 | 0.84 ± 0.095 | 0.821 ± 0.067 | 0.711 ± 0.23 | 0.494 ± 0.12 | 0.304 ± 0.011 | 0.314 ± 0.13 | 0.84 ± 0.071 | 0.88 ± 0.13 | 0.807 ± 0.25 | 1.04 ± 0.39 | 0.702 ± 0.091 | 0.854 ± 0.23 | 0.91 ± 0.082 | 0.847 ± 0.11 |
| SIHA CERVIX | 1.05 ± 0.033 | 1.14 ± 0.021 | 1.06 ± 0.02 | 1.11 ± 0.037 | 1.03 ± 0.031 | 1.02 ± 0.086 | 1.05 ± 0.06 | 1.1 ± 0.042 | 0.869 ± 0.011 | 0.902 ± 0.085 | 0.952 ± 0.092 | 0.979 ± 0.057 | 0.973 ± 0.047 | 1.02 ± 0.057 | 0.719 ± 0.062 | 0.611 ± 0.072 |
| SJSA1 BONE | 1.471 ± 0.007 | 1.67 ± 0.035 | 1.67 ± 0.09 | 1.72 ± 0.04 | 1.62 ± 0.095 | 1.47 ± 0.077 | 1.42 ± 0.022 | 1.75 ± 0.037 | 0.941 ± 0.086 | 1.68 ± 0.14 | 1.73 ± 0.12 | 1.72 ± 0.037 | 1.75 ± 0.13 | 1.77 ± 0.08 | 1.67 ± 0.043 | 1.78 ± 0.08 |
| SKBR3 BREAST | 1.07 ± 0.057 | 1.06 ± 0.04 | 1.12 ± 0.12 | 1.01 ± 0.054 | 0.697 ± 0.026 | 0.508 ± 0.03 | 0.233 ± 0.014 | 0.171 ± 0.021 | 0.913 ± 0.033 | 0.924 ± 0.16 | 1.09 ± 0.065 | 0.956 ± 0.12 | 0.986 ± 0.079 | 0.986 ± 0.056 | 0.882 ± 0.099 | 0.548 ± 0.051 |
| SNU475 LIVER | 1.01 ± 0.013 | 1.03 ± 0.04 | 1.01 ± 0.027 | 0.992 ± 0.035 | 0.953 ± 0.042 | 1 ± 0.041 | 0.987 ± 0.047 | 0.954 ± 0.04 | 0.989 ± 0.048 | 1.01 ± 0.032 | 0.967 ± 0.026 | 0.968 ± 0.06 | 1.02 ± 0.053 | 0.997 ± 0.059 | 0.956 ± 0.057 | 0.775 ± 0.051 |
| SUM44 BREAST | 1.05 ± 0.069 | 1.11 ± 0.19 | 1.11 ± 0.066 | 1.17 ± 0.21 | 1.04 ± 0.045 | 1.21 ± 0.17 | 1.08 ± 0.07 | 1.24 ± 0.18 | 1.14 ± 0.32 | 1.15 ± 0.3 | 1.14 ± 0.23 | 1.12 ± 0.2 | 1.3 ± 0.4 | 1.21 ± 0.33 | 0.837 ± 0.091 | 0.53 ± 0.054 |
| SUM149 BREAST | 0.945 ± 0.078 | 0.988 ± 0.11 | 0.943 ± 0.043 | 0.889 ± 0.12 | 0.741 ± 0.046 | 0.656 ± 0.019 | 0.492 ± 0.018 | 0.424 ± 0.047 | 0.984 ± 0.04 | 0.997 ± 0.052 | 1.07 ± 0.072 | 0.955 ± 0.025 | 1 ± 0.052 | 0.934 ± 0.065 | 0.442 ± 0.052 | 0.133 ± 0.022 |
| SUM149.B1*.S BREAST | 1.08 ± 0.049 | 1.23 ± 0.033 | 1.12 ± 0.023 | 1.11 ± 0.026 | 0.995 ± 0.06 | 1.07 ± 0.057 | 1.09 ± 0.035 | 1.05 ± 0.038 | 1.04 ± 0.011 | 1.02 ± 0.046 | 1.02 ± 0.025 | 1.02 ± 0.04 | 1.06 ± 0.025 | 1.08 ± 0.019 | 0.968 ± 0.015 | 0.628 ± 0.036 |
| SUM159 BREAST | 1.08 ± 0.022 | 1.13 ± 0.018 | 1.1 ± 0.037 | 1.07 ± 0.014 | 1.06 ± 0.029 | 1.1 ± 0.036 | 1.043 ± 0.01 | 1.03 ± 0.013 | 1.02 ± 0.028 | 1.02 ± 0.028 | 1.01 ± 0.027 | 1.02 ± 0.022 | 1.02 ± 0.023 | 1.04 ± 0.021 | 0.9593 ± 0.0093 | 0.562 ± 0.074 |
| SYO1 SYNOVIAL | 0.992 ± 0.026 | 1.03 ± 0.08 | 0.976 ± 0.034 | 1.04 ± 0.041 | 0.938 ± 0.033 | 0.976 ± 0.032 | 0.966 ± 0.026 | 0.975 ± 0.021 | 0.933 ± 0.044 | 0.93 ± 0.038 | 0.933 ± 0.017 | 0.961 ± 0.046 | 0.946 ± 0.043 | 0.9446 ± 0.0033 | 0.441 ± 0.065 | 0.1008 ± 0.00069 |
| T47D BREAST | 1.01 ± 0.068 | 1.07 ± 0.036 | 1.08 ± 0.072 | 1.07 ± 0.05 | 1.01 ± 0.019 | 1.04 ± 0.05 | 1 ± 0.041 | 1.01 ± 0.017 | 1 ± 0.053 | 1.02 ± 0.017 | 0.9847 ± 0.0046 | 1.01 ± 0.038 | 1.06 ± 0.062 | 1.087 ± 0.0062 | 0.783 ± 0.033 | 0.543 ± 0.037 |
| U2OS BONE | 1.03 ± 0.031 | 1.034 ± 0.0044 | 1.08 ± 0.014 | 1.08 ± 0.027 | 1.03 ± 0.012 | 1.04 ± 0.024 | 0.9533 ± 0.0085 | 0.938 ± 0.037 | 1.03 ± 0.016 | 1.013 ± 0.0046 | 1.02 ± 0.043 | 1.02 ± 0.017 | 1.06 ± 0.017 | 1.01 ± 0.021 | 0.681 ± 0.02 | 0.359 ± 0.033 |
| VCAP PROSTATE | 0.835 ± 0.089 | 0.828 ± 0.047 | 0.889 ± 0.21 | 1.15 ± 0.049 | 0.957 ± 0.07 | 0.901 ± 0.1 | 0.839 ± 0.035 | 0.956 ± 0.073 | 1.01 ± 0.05 | 0.983 ± 0.13 | 0.919 ± 0.054 | 1.1 ± 0.08 | 0.999 ± 0.075 | 1.06 ± 0.043 | 0.777 ± 0.069 | 0.231 ± 0.059 |
| VP229 BREAST | 1.23 ± 0.14 | 1.21 ± 0.039 | 1.21 ± 0.15 |  | 1.04 ± 0.11 | 0.92 ± 0.058 | 0.626 ± 0.019 | 0.436 ± 0.087 | 1.03 ± 0.077 | 1.09 ± 0.15 | 0.954 ± 0.093 | 1.04 ± 0.094 | 1.03 ± 0.15 | 1.18 ± 0.17 | 0.981 ± 0.058 | 0.801 ± 0.11 |
| YAMATO SYNOVIAL | 1.22 ± 0.066 | 1.31 ± 0.15 | 1.23 ± 0.12 | 1.24 ± 0.077 | 1.25 ± 0.16 | 1.31 ± 0.022 | 1.21 ± 0.16 | 1.13 ± 0.045 | 1.06 ± 0.051 | 1.14 ± 0.052 | 1.08 ± 0.079 | 1.16 ± 0.028 | 1.18 ± 0.075 | 1.13 ± 0.11 | 0.521 ± 0.04 | 0.445 ± 0.031 |
| ZR751 BREAST | 0.879 ± 0.09 | 0.898 ± 0.17 | 1.01 ± 0.08 | 1.1 ± 0.23 | 0.816 ± 0.069 | 0.785 ± 0.031 | 0.662 ± 0.038 | 0.746 ± 0.062 | 1.06 ± 0.12 | 1.04 ± 0.097 | 1.02 ± 0.039 | 1.13 ± 0.058 | 1.06 ± 0.048 | 1.04 ± 0.098 | 1.07 ± 0.039 | 0.645 ± 0.11 |
